Data: patent publication US11390622B2, “Pyrimido-isoquinolin-quinone derivative compounds, and pharmaceutically acceptable salts, isomers and tautomers thereof; pharmaceutical composition; preparation method; and use thereof in the treatment of diseases caused by bacteria and multidrug-resistant bacteria” (Universidad de Chile, priority 2015, dated 2022)
≈ marks a conversion by molar mass, not a printed value. Like-named read-outs stand apart in the source and are kept apart here.

What was measured:
[1] = test system: Enterococcus faecalis ATCC 29212; assay: CIM antibacterial activity screening (broth microdilution); assay type: cell-based
Method: (§1) These compounds were tested for their in vitro activity (Screening Antibacterial Activity CIM (μg/mL)) and the results are shown in Table II.
(§2) Bacteria used: A panel of prototype strains was used to screen for antibacterial activity in the compounds: • Methicillin-resistant Staphylococcus aureus ATCC© 43300. • Methicillin-sensitive Staphylococcus aureus ATCC© 29213. • Enterococcus faecalis ATCC© 29212. • Escherichia coli ATCC© 25922. • Pseudomonas aeruginosa ATCC© 27853.
(§3) The strains were planted from the ceparium (where they were preserved in 50% v/v glycerol and Brain Heart Infusion culture broth, at −20° C.) in Mueller-Hinton agar (Oxoid, England).
(§4) The concentrations to be tested ranged from 32 to 0.0625 μg/mL. The wells in columns 11 and 12 were used for positive growth control and sterility control respectively.
(§5) Once the plate was prepared, 100 uL of the bacterial suspension to be tested were added, previously adjusted to 0.5 Mc Farland, in each of the wells, excluding the wells in column 12. Finally, the plates were covered and incubated at 36° C. for 18 to 24 hours. Then, the plates were observed using contrast light to determine the concentration at which bacterial growth is inhibited (indicated by the disappearance of turbidity).
(§6) All trials were conducted three times, and results were considered valid if the internal controls of each plate (growth and sterility controls) were adequate. MIC antibiotic control (ciprofloxacin, gentamicin and vancomycin) was assessed and contrasted with the permitted quality control ranges given by CLSI. If the MIC detected in the trial was within the permitted ranges, the trial was accepted as valid.

[2] = test system: Eschericha coli ATCC 25922; assay: as above; assay type: cell-based; details: Escherichia coli
Method: as §1, §2, §3, §4, §5, §6

[3] = test system: Methicillin resistant Staphylococcus aureus ATCC 43300; assay: as above; assay type: cell-based
Method: as §1, §2, §3, §4, §5, §6

[4] = test system: Methicillin sensitive Staphylococcus aureus ATCC 29213; assay: as above; assay type: cell-based
Method: as §1, §2, §3, §4, §5, §6

[5] = test system: Pseudomona aeruginosa ATCC 27853; assay: as above; assay type: cell-based; details: Pseudomonas aeruginosa
Method: as §1, §2, §3, §4, §5, §6

[6] = ATCC29212, Enterococcus faecalis ATCC 29212, read-out: CIM
[7] = ATCC25922, Eschericha coli ATCC 25922, read-out: CIM
[8] = ATCC43300, Methicillin resistant Staphylococcus aureus ATCC 43300, read-out: CIM
[9] = ATCC29213, Methicillin sensitive Staphylococcus aureus ATCC 29213, read-out: CIM
[10] = ATCC27853, Pseudomona aeruginosa ATCC 27853, read-out: CIM
[11] = Enterococcus faecalis, ATCC29212, read-out: CIM
[12] = Staphylococcus aureus, ATCC43300, read-out: CIM
[13] = Staphylococcus aureus, ATCC29213, read-out: CIM

For `CCc1nc2c(c3c1C(=O)C(Sc1ccccc1OC)=CC3=O)c(=O)n(C)c(=O)n2C` [Molecule 4, 6-ethyl-8-(2-methoxyphenylthio)-2,4-dimethyl pyrimido[4,5-c]isoquinoline-1,3,7,10(2H,4H)-tetraone], the MIC [1, 6] was 4 µg/mL (≈ 9.14 µM), the MIC [2, 7] was ≥ 32 µg/mL and the MIC [3, 8] was 2 µg/mL (≈ 4.57 µM). For the same compound, the MIC [4, 9] was 4 µg/mL (≈ 9.14 µM) and the MIC [5, 10] was ≥ 32 µg/mL.
With `CCc1nc2c(c3c1C(=O)C(Sc1ccc(OC)cc1)=CC3=O)c(=O)n(C)c(=O)n2C` [Molecule 14, 6-ethyl-8-(4-methoxythiophenyl)-2,4-dimethylpyrimido[4,5-c]isoquinoline-1,3,7,10(2H,4H)-tetraone] the MIC [1, 6] was 16 µg/mL (≈ 36.6 µM), the MIC [2, 7] was ≥ 32 µg/mL and the MIC [3, 8] was 16 µg/mL (≈ 36.6 µM). For the same compound, the MIC [4, 9] was 16 µg/mL (≈ 36.6 µM), the MIC [5, 10] was ≥ 32 µg/mL and the melting point was 198.9 to 201.5 °C.
For `CCc1nc2c(c3c1C(=O)C(Sc1cccc(Br)c1)=CC3=O)c(=O)n(C)c(=O)n2C` [Molecule 12, 8-(3-bromothiophenyl)-6-ethyl-2,4-dimethylpyrimido[4,5-c]isoquinoline-1,3,7,10(2, 4H)-tetraone], the MIC [1, 6] was 4 µg/mL (≈ 8.22 µM), the MIC [2, 7] was ≥ 32 µg/mL and the MIC [3, 8] was 2 µg/mL (≈ 4.11 µM). For the same compound, the MIC [4, 9] was 32 µg/mL (≈ 65.8 µM), the MIC [5, 10] was ≥ 32 µg/mL and the melting point was 138.3 to 139.3 °C.
In the case of `CCc1nc2c(c3c1C(=O)C(Sc1ccccc1F)=CC3=O)c(=O)n(C)c(=O)n2C` [Molecule 5, 6-ethyl-8-((2-fluorophenyl)thio)-2,4-dimethyl pyrimido[4,5-c]isoquinoline-1,3,7,10(2H, 4H)-tetraone], the MIC [1, 6] is reported as ≥ 32 µg/mL, the MIC [2, 7] is reported as ≥ 32 µg/mL and the MIC [3, 8] is reported as ≥ 32 µg/mL. The MIC [4, 9] was ≥ 32 µg/mL and the MIC [5, 10] was ≥ 32 µg/mL.
For `CCc1nc2c(c3c1C(=O)C(Sc1cccc(OC)c1)=CC3=O)c(=O)n(C)c(=O)n2C` [Molecule 9, 6-ethyl-8-(3-methoxythiophenyl)-2,4-dimethylpyrimido[4,5-c]isoquinoline-1,3,7,10(2H,4H)-tetraone], the MIC [1, 6] was 4 µg/mL (≈ 9.14 µM), the MIC [2, 7] was ≥ 32 µg/mL and the MIC [3, 8] was 4 µg/mL (≈ 9.14 µM). For the same compound, the MIC [4, 9] was 8 µg/mL (≈ 18.3 µM), the MIC [5, 10] was ≥ 32 µg/mL and the melting point was 179.5 to 180.5 °C.
For `CCc1nc2c(c3c1C(=O)C(Sc1ccccc1C)=CC3=O)c(=O)n(C)c(=O)n2C` [Molecule 3, 6-ethyl-2,4-dimethyl-8-(o-tolylthio)pyrimido[4,5-c]isoquinoline-1,3,7,10(2H,4H)-tetraone], the MIC [1, 6] was ≥ 32 µg/mL, the MIC [2, 7] was ≥ 32 µg/mL and the MIC [3, 8] was 32 µg/mL (≈ 75.9 µM). For the same compound, the MIC [4, 9] was 32 µg/mL (≈ 75.9 µM), the MIC [5, 10] was ≥ 32 µg/mL and the melting point was 206 to 210.9 °C.
With `CCc1nc2c(c3c1C(=O)C(Sc1ccc(C)cc1)=CC3=O)c(=O)n(C)c(=O)n2C` [Molecule 13, 6-ethyl-2,4-dimethyl-8-(p-tolylthio)pyrimido[4,5-c]isoquinoline-1,3,7,10(2H,4H)-tetraone] the MIC [1, 6] was 16 µg/mL (≈ 38 µM), the MIC [2, 7] was ≥ 32 µg/mL and the MIC [3, 8] was 4 µg/mL (≈ 9.49 µM). The MIC [4, 9] was 4 µg/mL (≈ 9.49 µM), the MIC [5, 10] was ≥ 32 µg/mL and the melting point was 191 to 192.3 °C.
For `CCc1nc2c(c3c1C(=O)C(Sc1ccc(F)cc1)=CC3=O)c(=O)n(C)c(=O)n2C` [Molecule 15, 6-ethyl-8-(4-fluorothiophenyl)-2,4-dimethylpyrimido[4,5-c]isoquinoline-1,3,7,10(2H, 4H)-tetraone], the MIC [1, 6] was 8 µg/mL (≈ 18.8 µM), the MIC [2, 7] was ≥ 32 µg/mL and the MIC [3, 8] was 8 µg/mL (≈ 18.8 µM). For the same compound, the MIC [4, 9] was 8 µg/mL (≈ 18.8 µM), the MIC [5, 10] was ≥ 32 µg/mL and the melting point was 194.9 to 195.4 °C.
With `CCc1nc2c(c3c1C(=O)C(Sc1ccc(Cl)cc1)=CC3=O)c(=O)n(C)c(=O)n2C` [Molecule 16, 8-(4-chlorothiophenyl)-6-ethyl-2,4-dimethylpyrimido[4,5-c]isoquinoline-1,3,7,10(2H, 4H)-tetraone] the MIC [1, 11] was 4 µg/mL (≈ 9.05 µM), the MIC ([2]; ATCC25922, read-out: CIM) was ≥ 32 µg/mL and the MIC [3, 12] was 4 µg/mL (≈ 9.05 µM). For the same compound, the MIC [4, 13] was 4 µg/mL (≈ 9.05 µM), the MIC ([5]; ATCC27853, read-out: CIM) was ≥ 32 µg/mL and the melting point was 196.5 to 198.3 °C.
For `CCc1nc2c(c3c1C(=O)C(Sc1cccc(C)c1)=CC3=O)c(=O)n(C)c(=O)n2C` [Molecule 8, 6-ethyl-2,4-dimethyl-8-(m-tolylthio)pyrimido[4,5c]isoquinoline-1,3,7,10(2H,4H)-tetraone], the MIC [1, 6] was 4 µg/mL (≈ 9.49 µM), the MIC [2, 7] was ≥ 32 µg/mL and the MIC [3, 8] was 4 µg/mL (≈ 9.49 µM). The MIC [4, 9] was 4 µg/mL (≈ 9.49 µM), the MIC [5, 10] was ≥ 32 µg/mL and the melting point was 162 to 163 °C.
In the case of `CCc1nc2c(c3c1C(=O)C(Sc1ccccc1Cl)=CC3=O)c(=O)n(C)c(=O)n2C` [Molecule 6, 8-((2-chlorophenyl)thio)-6-ethyl-2,4-dimethyl pyrimido[4,5-c]isoquinoline-1,3,7,10(2H,4H)-tetraone], the MIC [1, 11] is reported as ≥ 32 µg/mL, the MIC ([2]; ATCC25922, read-out: CIM) is reported as ≥ 32 µg/mL and the MIC [3, 12] is reported as ≥ 32 µg/mL. The MIC [4, 13] was ≥ 32 µg/mL and the MIC ([5]; ATCC27853, read-out: CIM) was ≥ 32 µg/mL.
With `CCc1nc2c(c3c1C(=O)C=CC3=O)c(=O)n(C)c(=O)n2C` [Molecule 1, 6-ethyl-2,4-dimethylpyrimido[4,5-c]isoquinoline-1,3,7,10(2H,4H)-tetraone] the MIC [1, 6] was > 32 µg/mL, the MIC [2, 7] was > 32 µg/mL and the MIC [3, 8] was ≥ 32 µg/mL. For the same compound, the MIC [4, 9] was ≥ 32 µg/mL, the MIC [5, 10] was > 32 µg/mL and the melting point was 167.6 to 167.9 °C.
In the case of `CCc1nc2c(c3c1C(=O)C(Sc1cccc(Cl)c1)=CC3=O)c(=O)n(C)c(=O)n2C` [Molecule 11, 8-(3-chlorothiophenyl)-6-ethyl-2,4-dimethylpyrimido[4,5-c]isoquinoline-1,3,7,10(2H,4H)-tetraone], the MIC [1, 6] is reported as 4 µg/mL (≈ 9.05 µM), the MIC [2, 7] is reported as ≥ 32 µg/mL and the MIC [3, 8] is reported as 2 µg/mL (≈ 4.53 µM). For the same compound, the MIC [4, 9] was 32 µg/mL (≈ 72.4 µM), the MIC [5, 10] was ≥ 32 µg/mL and the melting point was 156.1 to 157.1 °C.
With `CCc1nc2c(c3c1C(=O)C(Sc1cccc(F)c1)=CC3=O)c(=O)n(C)c(=O)n2C` [Molecule 10, 6-ethyl-8-(3-fluorothiophenyl)-2,4-dimethylpyrimido[4,5-c]isoquinoline-1,3,7,10(2H,4H)-tetraone] the MIC [1, 6] was 8 µg/mL (≈ 18.8 µM), the MIC [2, 7] was ≥ 32 µg/mL and the MIC [3, 8] was 4 µg/mL (≈ 9.4 µM). For the same compound, the MIC [4, 9] was 4 µg/mL (≈ 9.4 µM), the MIC [5, 10] was ≥ 32 µg/mL and the melting point was 170 to 171 °C.
In the case of `CCc1nc2c(c3c1C(=O)C(Sc1ccc(Br)cc1)=CC3=O)c(=O)n(C)c(=O)n2C` [Molecule 17, 8-(4-bromothiophenyl)-6-ethyl-2,4-dimethylpyrimido[4,5-c]isoquinoline-1,3,7,10(2H,4H)-tetraone], the MIC [1, 6] is reported as 8 µg/mL (≈ 16.4 µM), the MIC [2, 7] is reported as ≥ 32 µg/mL and the MIC [3, 8] is reported as 4 µg/mL (≈ 8.22 µM). For the same compound, the MIC [4, 9] was 8 µg/mL (≈ 16.4 µM), the MIC [5, 10] was ≥ 32 µg/mL and the melting point was 197.9 to 198.7 °C.
In the case of `CCc1nc2c(c3c1C(=O)C(Sc1ccccc1)=CC3=O)c(=O)n(C)c(=O)n2C` [Molecule 2, 6-ethyl-2,4-dimethyl-8-(phenythio)pyrimido[4,5-c]isoquinoline-1,3,7,10(2H,4H)-tetraone], the MIC [1, 11] is reported as 8 µg/mL (≈ 19.6 µM), the MIC ([2]; ATCC25922, read-out: CIM) is reported as ≥ 32 µg/mL and the MIC [3, 12] is reported as 8 µg/mL (≈ 19.6 µM). The MIC [4, 13] was 8 µg/mL (≈ 19.6 µM), the MIC ([5]; ATCC27853, read-out: CIM) was ≥ 32 µg/mL and the melting point was 179.4 to 180 °C.
In the case of `CCc1nc2c(c3c1C(=O)C(Sc1ccccc1Br)=CC3=O)c(=O)n(C)c(=O)n2C` [Molecule 7, 8-((2-bromophenyl)thio)-6-ethyl-2,4-dimethylpyrimido[4,5-c]isoquinoline-1,3,7,10(2H,4H)-tetraone], the MIC [1, 6] is reported as 2 µg/mL (≈ 4.11 µM), the MIC [2, 7] is reported as ≥ 32 µg/mL and the MIC [3, 8] is reported as 1 µg/mL (≈ 2.06 µM). The MIC [4, 9] was 4 µg/mL (≈ 8.22 µM) and the MIC [5, 10] was ≥ 32 µg/mL.
